Laboratory results published in patent US9193954B2, “Methods and compositions for mesenchymal stem cell proliferation” (priority 2011, dated 2015).

Experiments:
Assay type in all cases: cell-based, human
hMSCs [1] = test: hMSC cell layer thickness by confocal microscopy; conditions: for cell layer thickness: day 40
Procedure: (§1) hMSC cell layer thickness was measured using the z-directional controls of a FV1000 Olympus Laser Scanning Confocal Microscope. On days 1, 14, and 40 cells, seeded on optically clear glass bottom 24-well culture plates (MatTek, Ashland, Mass.) were stained using a fluorescent LIVE/DEAD Viability/Cytotoxicity kit (Invitrogen). The focal plane of the microscope was adjusted to the cell-plate interface and set to zero. Using the z-directional controls the focal plane was raised until the live fluorescently stained cells were no longer visible at which point the cell layer thickness was recorded.

PEG-encapsulated hMSCs = test: LIVE/DEAD confocal imaging of PEG-encapsulated BIO-treated hMSC cultures; conditions: no detectable dead cells
Excerpt: FIG. 7 Schematic representation of 18 day PEG-encapsulated hMSC culture after 24 hr exposure to BIO-containing media (A). Cell DNA concentration was quantified on days 0, 1, 5, 12, and 18 and shown to undergo a dose-dependent, BIO-mediated increase in proliferation (B), as previously shown in two-dimensional cultures. Representative LIVE/DEAD confocal images of PEG-encapsulated BIO-treated hMSC cultures (C).
Encapsulated hMSC viability, BIO treatment, and assessment of gene expression was performed as described in Section 2.3 with exception of cell lysate collection. For assessment of gene expression hMSC-PEG constructs were homogenized in lysis buffer and centrifuged to pellet polymerized PEG. The supernatant was then collected for analysis.

hMSCs [2] = test: LIVE/DEAD confocal imaging of two-dimensional BIO-treated hMSC cultures; conditions: no detectable dead cells
Procedure: FIG. 4 Schematic representation of 41 day hMSC monolayer culture after 24 hr exposure to BIO-containing media (A). Cells were trypsinized and manually counted on days 0, 1, 3, 6, 19, 27, 34, 37, and 41 and shown to undergo a dose-dependent, BIO-mediated increase in proliferation (B).
as §1

hMSCs [3] = test: Media induced differentiation of BIO-treated hMSCs (histology and Cbfa1, Sox9, PPARγ expression)
Procedure: Dev Cell. […] After 24 hrs cell media was replaced and cells were allowed to proliferate over three weeks. After three weeks BIO-treated hMSCs were cultured for three weeks in standard differentiation-inducing media (FIG. 6a). For osteogenic differentiation hMSCs were grown in normal growth media with osteogenic supplements (100 nM dexamethasone, 10 mM β-glycerophosphate, 50 μM ascorbic acid-2-phosphate). […] Differentiated two-dimensional cell cultures were fixed in 24-well tissue culture plates for 48 hrs in 4% paraformaldehyde and the monolayers were stained for mineralization (von Kossa, osteogenic), or the presence of lipid droplets (oil red o, adipogenic). Undifferentiated cultures were also stained as negative controls. Images were taken on a Motic AE20 inverted light microscope using a Canon EOS Rebel T2i with an eyepiece modification.
For chondrogenic differentiation, hMSCs were seeded at a density of 5,000 cell/cm^2 in T-75 tissue culture flasks, allowed to become adherent, and treated with BIO containing growth media for 24 hrs. After 24 hrs, cell media was replaced and cells were allowed to proliferate over three weeks (FIG. 6a). […] Pellet cultures were fixed for 48 hrs in 4% paraformaldehyde, cryosectioned, and stained for glycosaminoglycan production (toluidine blue, chondrogenic). Stained sections were imaged as described above.
RT-PCR was used to assess gene expression of hMSCs over time. At days: 0 (before BIO treatment), 1, 3, 6, 19, 29, 34, 37, and 41, samples were lysed and total RNA was isolated (ENZA Total RNA Kit, Omega). Reverse transcription was performed using the iScript cDNA Synthesis Kit (Bio-Rad). The reverse transcription reaction was incubated at 25° C. for 5 min, 42° C. for 30 min, and terminated at 85° C. for 5 min. PCR was performed using a CFX96 Real-Time PCR System (Bio-Rad), monitoring sybrgreen products (SsoFastEvaGreen Master Mix, Bio-Rad). Primers for β-actin, sex determining region Y-box 2 (Sox2), Nanog homobox (Nanog), and octamer-binding transcription factor 4 (Oct4), core-binding factor subunit alpha-1 (Cbfa1, also known as Runx2), sex determining region Y-box 9 (Sox9), and peroxisome proliferator-activated receptor gamma (PPARγ) were used (Table 2). The PCR parameters used were as follows: hold at 95° C. for 5 min, followed by 40 cycles of: 95° C. for 15 sec denaturation, 60° C. (β-actin, Sox2, Sox9), or 57° C. (Nanog, Oct4, Cbfa1), or 55° C. (PPARγ) for 60 sec annealing, and 72° C. for 20 sec extension. Threshold cycle (CT) analysis was used to quantify PCR products normalized to the cellular housekeeping gene β-actin. Relative gene quantification was performed using the Pfaffl Method, taking into account the variation between primer efficiencies.

[4] = 5 μM BIO, adipogenic-differentiated hMSCs
[5] = 5 μM BIO, osteogenic differentiated hMSCs

In the case of `O=C1Nc2cc(Br)ccc2/C1=C1/Nc2ccccc2/C1=N\O` [BIO, 6-bromoindirubin-3′-oxime], the cell layer thickness (hMSCs [1]; 2 μM BIO) is reported as 23.5 μm, the cell layer thickness (hMSCs [1]; 5 μM BIO) is reported as 24.0 μm and the “cell layer thickness versus untreated control” value (hMSCs [1]; day 0 and 14) is reported as “no statistically significant differences”. The “live cells (LIVE/DEAD imaging)” value (PEG-encapsulated hMSCs) was about 100%, the “live cells (LIVE/DEAD imaging)” value (hMSCs [2]) was about 100% and the “histological analysis of differentiation (von Kossa, toluidine blue, oil red o), BIO-treated versus untreated” value (hMSCs [3]; 5 μM BIO 24 hrs, 21 days proliferation, 3 weeks differentiation media) was “uniform mineralization”. For the same compound, the “PPARγ expression over undifferentiated controls” value (hMSCs [3]; [4]) was 31.2 fold, the “increase in PPARγ expression compared to differentiated non-BIO-treated (0 μM) controls” value (hMSCs [3]; [4]) was 5.0 fold and the “Sox9 expression compared with undifferentiated controls” value (hMSCs [3]; 5 μM BIO, chondrogenic-differentiated hMSCs, not statistically significant) was 0.6 fold. The “Cbfa1 expression over undifferentiated controls” value (hMSCs [3]; [5]) was 3.9 fold and the “increase in Cbfa1 expression compared to differentiated non-BIO-treated (0 μM) controls” value (hMSCs [3]; [5]) was 2.1 fold.
